Data reported in patent publication US20100285959A1, “HERBICIDAL MIXTURES” (priority 2006, published 2010).

Assays:
common sugarcane (SACOF) = experiment: Test 12 field trial, preemergence; format: in vivo, Saccharum officinarum; details: Cpd 2 or Cpd 1 62 g a.i./ha, Diuron 2000 g a.i./ha
Text: (§1) In early-mid spring season, corn seeds (hybrid ‘Pioneer 3041’) were planted 5 cm deep and sugarcane nodes (variety RB-72.454) were planted 10 cm deep in separate plots in a clay soil having 2.6% organic matter and a pH of 5.6. Plots were 24 m long by 1.5 m wide with rows spaced 80 cm (corn) or 140 cm (sugarcane) apart. Corn seeds were spaced 15 cm apart and sugarcane nodes were spaced 10 cm apart within the rows. At the same time, weed seeds were broadcast over the surface of separate plots without a crop, one weed species per plot. The weed plots were rotary tilled to incorporate the weed seeds to a variety of depths. The field was managed using conventional tillage practices.

flint corn (ZEAMI) = experiment: Test 12 field trial, preemergence; format: in vivo, Zea mays L. ssp. indurata; details: Cpd 2 or Cpd 1 62 g a.i./ha, Diuron 2000 g a.i./ha
Text: as §1

common purslane (POROL) = experiment: Test 12 field trial, preemergence; format: in vivo, Portulaca oleracea; details: Cpd 2 or Cpd 1 62 g a.i./ha, Diuron 2000 g a.i./ha
Text: as §1

sicklepod (CASOB) = experiment: Test 12 field trial, preemergence; format: in vivo, Cassia obtusifolia; details: Cpd 2 or Cpd 1 62 g a.i./ha, Diuron 2000 g a.i./ha
Text: as §1

common blackjack (BIDPI) = experiment: Test 12 field trial, preemergence; format: in vivo, Bidens pilosa; details: Cpd 2 or Cpd 1 62 g a.i./ha, Diuron 2000 g a.i./ha
Text: as §1

wild spikenard (HPYSU) = experiment: Test 12 field trial, preemergence; format: in vivo; details: Cpd 2 or Cpd 1 62 g a.i./ha, Diuron 2000 g a.i./ha
Text: as §1

[1] = system: Ipomoea grandiflora (IPOGF); experiment: Test 12 field trial, preemergence; format: in vivo; details: Cpd 2 or Cpd 1 62 g a.i./ha, Diuron 2000 g a.i./ha
Text: as §1

[2] = system: tropical spiderwort (COMBE); experiment: Test 12 field trial, preemergence; format: in vivo, Commelina benghalensis; details: Cpd 2 or Cpd 1 62 g a.i./ha, Diuron 2000 g a.i./ha
Text: as §1

[3] = system: Italian cocklebur (XANSI); experiment: Test 12 field trial, preemergence; format: in vivo, Xanthium strumarium ssp. italicum; details: Cpd 2 or Cpd 1 62 g a.i./ha, Diuron 2000 g a.i./ha
Text: as §1

wild poinsettia (EPHHL) = experiment: Test 12 field trial, preemergence; format: in vivo, Euphorbia heterophylla; details: Cpd 2 or Cpd 1 62 g a.i./ha, Diuron 2000 g a.i./ha
Text: as §1

[4] = system: broadleaf buttonweed (BOILF); experiment: Test 12 field trial, preemergence; format: in vivo, Borreria latifolia; details: Cpd 2 or Cpd 1 62 g a.i./ha, Diuron 2000 g a.i./ha
Text: as §1

slender amaranth (AMAVI) = experiment: Test 12 field trial, preemergence; format: in vivo, Amaranthus viridis; details: Cpd 2 or Cpd 1 62 g a.i./ha, Diuron 2000 g a.i./ha
Text: as §1

arrowleaf sida (SIDRH) = experiment: Test 12 field trial, preemergence; format: in vivo, Sida rhombifolia; details: Cpd 2 or Cpd 1 62 g a.i./ha, Diuron 2000 g a.i./ha
Text: as §1

[5] = system: Florida beggarweed (DEDTO); experiment: Test 12 field trial, preemergence; format: in vivo, Desmodium tortuosum; details: Cpd 2 or Cpd 1 62 g a.i./ha, Diuron 2000 g a.i./ha
Text: as §1

velvetleaf (ABUTH) [6] = experiment: Test 16 greenhouse, post- and preemergence; details: 15 DAA
velvetleaf (ABUTH) [7] = experiment: Test 18 greenhouse, post- and preemergence; details: 15 DAA
kochia (KCHSC) = experiment: Test 27 field trial, postemergence; format: in vivo, Kochia scoparia; set-up: scale not given here; details: tribenuron-methyl 10 g a.i./ha
Text: (§2) Wheat seeds (cv. ‘Custer’) were planted in late fall season in a clay loam soil. Plots were 9 m long by 1.8 m wide. The field was managed using conventional tillage practices. […] All treatments also included a surfactant. […] Results are the means of the three replicates.

winter wheat (TRZAW) = experiment: Test 27 field trial, postemergence; format: in vivo, Triticum aestivum; details: in vivo
Text: as §2

velvetleaf (ABUTH) [8] = experiment: Test 17 greenhouse, post- and preemergence; format: in vivo, Abutilon theophrasti; details: 12 DAA
Text: Plants were watered as needed.

CN(C)C(=O)Nc1ccc(Cl)c(Cl)c1 [Diuron]
SACOF Obs (common sugarcane (SACOF); 15 DAA): 0
SACOF Obs (common sugarcane (SACOF); 29 DAA): 0
SACOF Obs (common sugarcane (SACOF); 48 DAA): 0
SACOF Obs (common sugarcane (SACOF); 61 DAA): 5
ZEAMI Obs (flint corn (ZEAMI); 15 DAA): 20%
ZEAMI Obs (flint corn (ZEAMI); 29 DAA): 20%
ZEAMI Obs (flint corn (ZEAMI); 48 DAA): 20%
ZEAMI Obs (flint corn (ZEAMI); 61 DAA): 25%
POROL Obs (common purslane (POROL); 15 DAA): 100
POROL Obs (common purslane (POROL); 29 DAA): 100
POROL Obs (common purslane (POROL); 48 DAA): 100
POROL Obs (common purslane (POROL); 61 DAA): 100
CASOB Obs (sicklepod (CASOB); 15 DAA): 90
CASOB Obs (sicklepod (CASOB); 29 DAA): 90
CASOB Obs (sicklepod (CASOB); 48 DAA): 60
CASOB Obs (sicklepod (CASOB); 61 DAA): 40
BIDPI Obs (common blackjack (BIDPI); 15 DAA): 100
BIDPI Obs (common blackjack (BIDPI); 29 DAA): 100
BIDPI Obs (common blackjack (BIDPI); 48 DAA): 100
BIDPI Obs (common blackjack (BIDPI); 61 DAA): 100
HPYSU Obs (wild spikenard (HPYSU); 15 DAA): 75
HPYSU Obs (wild spikenard (HPYSU); 29 DAA): 60
HPYSU Obs (wild spikenard (HPYSU); 48 DAA): 40
HPYSU Obs (wild spikenard (HPYSU); 61 DAA): 20
IPOGF Obs ([1]; 15 DAA): 80
IPOGF Obs ([1]; 29 DAA): 80
IPOGF Obs ([1]; 48 DAA): 40
IPOGF Obs ([1]; 61 DAA): 40
COMBE Obs ([2]; 15 DAA): 99
COMBE Obs ([2]; 29 DAA): 100
COMBE Obs ([2]; 48 DAA): 100
COMBE Obs ([2]; 61 DAA): 100
XANSI Obs ([3]; 15 DAA): 60
XANSI Obs ([3]; 29 DAA): 40
XANSI Obs ([3]; 48 DAA): 40
XANSI Obs ([3]; 61 DAA): 40
EPHHL Obs (wild poinsettia (EPHHL); 15 DAA): 60
EPHHL Obs (wild poinsettia (EPHHL); 29 DAA): 40
EPHHL Obs (wild poinsettia (EPHHL); 48 DAA): 20
EPHHL Obs (wild poinsettia (EPHHL); 61 DAA): 40
BOILF Obs ([4]; 15 DAA): 99
BOILF Obs ([4]; 29 DAA): 100
BOILF Obs ([4]; 48 DAA): 100
BOILF Obs ([4]; 61 DAA): 95
AMAVI Obs (slender amaranth (AMAVI); 15 DAA): 100
AMAVI Obs (slender amaranth (AMAVI); 29 DAA): 100
AMAVI Obs (slender amaranth (AMAVI); 48 DAA): 100
AMAVI Obs (slender amaranth (AMAVI); 61 DAA): 100
SIDRH Obs (arrowleaf sida (SIDRH); 15 DAA): 100
SIDRH Obs (arrowleaf sida (SIDRH); 29 DAA): 100
SIDRH Obs (arrowleaf sida (SIDRH); 48 DAA): 100
SIDRH Obs (arrowleaf sida (SIDRH); 61 DAA): 100
DEDTO Obs ([5]; 15 DAA): 100
DEDTO Obs ([5]; 29 DAA): 100
DEDTO Obs ([5]; 48 DAA): 100
DEDTO Obs ([5]; 61 DAA): 95

O=C(O)c1cc(Oc2ccc(C(F)(F)F)cc2Cl)ccc1[N+](=O)[O-] [Acifluorfen]
Obs response, scale 0 to 100 (velvetleaf (ABUTH) [6]; Postemergence, 7.5 g a.i./ha): 0
Obs response, scale 0 to 100 (velvetleaf (ABUTH) [6]; Postemergence, 15 g a.i./ha): 0
Obs response, scale 0 to 100 (velvetleaf (ABUTH) [6]; Postemergence, 30 g a.i./ha): 0
Obs response, scale 0 to 100 (velvetleaf (ABUTH) [6]; Preemergence, 7.5 g a.i./ha): 0
Obs response, scale 0 to 100 (velvetleaf (ABUTH) [6]; Preemergence, 15 g a.i./ha): 2
Obs response, scale 0 to 100 (velvetleaf (ABUTH) [6]; Preemergence, 30 g a.i./ha): 2

Cc1nn(-c2cc(NS(C)(=O)=O)c(Cl)cc2Cl)c(=O)n1C(F)F [Sulfentrazone]
Postemergence ABUTH Obs (velvetleaf (ABUTH) [7]; alone at 7.5 g a.i./ha): 10
Preemergence ABUTH Obs (velvetleaf (ABUTH) [7]; alone at 7.5 g a.i./ha): 0
Postemergence ABUTH Obs (velvetleaf (ABUTH) [7]; alone at 15 g a.i./ha): 19
Preemergence ABUTH Obs (velvetleaf (ABUTH) [7]; alone at 15 g a.i./ha): 3
Postemergence ABUTH Obs (velvetleaf (ABUTH) [7]; alone at 30 g a.i./ha): 44
Preemergence ABUTH Obs (velvetleaf (ABUTH) [7]; alone at 30 g a.i./ha): 28

C#CCN1C(=O)COc2cc(F)c(N3C(=O)C4=C(CCCC4)C3=O)cc21 [Flumioxazin]
Obs response, scale 0 to 100 (velvetleaf (ABUTH) [6]; Postemergence, 7.5 g a.i./ha): 36
Obs response, scale 0 to 100 (velvetleaf (ABUTH) [6]; Postemergence, 15 g a.i./ha): 47
Obs response, scale 0 to 100 (velvetleaf (ABUTH) [6]; Postemergence, 30 g a.i./ha): 52
Obs response, scale 0 to 100 (velvetleaf (ABUTH) [6]; Postemergence, 45 g a.i./ha): 69
Obs response, scale 0 to 100 (velvetleaf (ABUTH) [6]; Preemergence, 7.5 g a.i./ha): 58
Obs response, scale 0 to 100 (velvetleaf (ABUTH) [6]; Preemergence, 15 g a.i./ha): 65
Obs response, scale 0 to 100 (velvetleaf (ABUTH) [6]; Preemergence, 30 g a.i./ha): 93
Obs response, scale 0 to 100 (velvetleaf (ABUTH) [6]; Preemergence, 45 g a.i./ha): 100

COC(=O)c1ccccc1S(=O)(=O)NC(=O)N(C)c1nc(C)nc(OC)n1 [Tribenuron-methyl]
KCHSC Obs (kochia (KCHSC); 16 DAA): 22
KCHSC Obs (kochia (KCHSC); 28 DAA): 23
KCHSC Obs (kochia (KCHSC); 49 DAA): 22
TRZAW Obs (winter wheat (TRZAW); cv. Custer, Triticum aestivum (winter wheat), 16 days after application): 0
TRZAW Obs (winter wheat (TRZAW); cv. Custer, Triticum aestivum (winter wheat), 28 days after application): 0
TRZAW Obs (winter wheat (TRZAW)): 0

Cc1nn(-c2cc(CC(Cl)C(=O)O)c(Cl)cc2F)c(=O)n1C(F)F (stereo not drawn) [Carfentrazone]
Obs response, scale 0 to 100 (velvetleaf (ABUTH) [8]; Postemergence, 7.5 g a.i./ha): 70
Obs response, scale 0 to 100 (velvetleaf (ABUTH) [8]; Postemergence, 15 g a.i./ha): 79
Obs response, scale 0 to 100 (velvetleaf (ABUTH) [8]; Postemergence, 30 g a.i./ha): 82
Obs response, scale 0 to 100 (velvetleaf (ABUTH) [8]; Preemergence, 7.5 g a.i./ha): 4
Obs response, scale 0 to 100 (velvetleaf (ABUTH) [8]; Preemergence, 15 g a.i./ha): 8
Obs response, scale 0 to 100 (velvetleaf (ABUTH) [8]; Preemergence, 30 g a.i./ha): 8

C#CCOc1cc(-n2nc3n(c2=O)CCCC3)c(Cl)cc1Cl [Azafenidin]
Postemergence ABUTH Obs (velvetleaf (ABUTH) [7]; alone at 7.5 g a.i./ha): 46
Preemergence ABUTH Obs (velvetleaf (ABUTH) [7]; alone at 7.5 g a.i./ha): 18
Postemergence ABUTH Obs (velvetleaf (ABUTH) [7]; alone at 15 g a.i./ha): 73
Preemergence ABUTH Obs (velvetleaf (ABUTH) [7]; alone at 15 g a.i./ha): 35
Postemergence ABUTH Obs (velvetleaf (ABUTH) [7]; alone at 30 g a.i./ha): 81
Preemergence ABUTH Obs (velvetleaf (ABUTH) [7]; alone at 30 g a.i./ha): 67
Postemergence ABUTH Obs (velvetleaf (ABUTH) [7]; alone at 45 g a.i./ha): 86
Preemergence ABUTH Obs (velvetleaf (ABUTH) [7]; alone at 45 g a.i./ha): 68
